The values below come from patent publication US20160222021A1, “ARYL ETHER-BASE KINASE INHIBITORS” (BRISTOL-MYERS SQUIBB COMPANY, priority 2013, published 2016).

One may read the IC50 as the concentration that gives 50% inhibition.

A value given as a limit tells only on which side of the number the result lay.

Experiment [1] concerns mice. Description: formalin paw test. In kind it is in vivo, mouse. As for the experimental part: AAK1 homozygous (−/−) and their wild-type (+/+) littermates were tested using the formalin paw test in order to assess their acute and tonic nociceptive responses. For these tests, Automatic Nociception Analyzers (purchased from the Ozaki lab at University of California, San Diego) were used. A metal band was placed around the left hind paw of each mouse 30 minutes prior to testing. After the 30-minute acclimation period, 20 μl of 5% formalin is subcutaneously injected in the dorsal surface of the left hind paw. Mice were individually housed in cylindrical chambers for 45 minutes. Fresh 5% formalin solution was prepared by diluting formaldehyde (Formalde-fresh 20%, Fisher Scientific, Fair Lawn, N.J.) with distilled water. Investigatory compounds were administered 30 minutes prior to formalin injection.
A computer recorded flinches per minute, total flinches for phase I (acute phase=first 8 minutes), and total flinches for phase II (tonic phase=time between minutes 20-40) through an electromagnetic field. See Yaksh T L, Ozaki G, McCumber D, Rathbun M, Svensson C, Malkmus S, Yaksh M C. An automated flinch detecting system for use in the formalin nociceptive bioassay. J Appl Physiol., 2001; 90:2386-402.
The same test was used to confirm that the administration of an AAK1 inhibitor can also affect pain response.
A compound of the disclosure was tested in this assay at different doses. Gabapentin and pregabalin were used as positive controls. Results are shown below in Table 2, wherein the effect of gabapentin at 200 mg/kg is considered a 100% response, the % response for the other compounds is relative to the 200 mg/kg dose of gabapentin, “sc” means subcutaneous administration.

The target in experiment [2] is T1, GST-Xa-hAAK1 (Homo sapiens, UniProt Q2M2I8).
T1 construct: made in house
T1 sequence (Q2M2I8 whole entry): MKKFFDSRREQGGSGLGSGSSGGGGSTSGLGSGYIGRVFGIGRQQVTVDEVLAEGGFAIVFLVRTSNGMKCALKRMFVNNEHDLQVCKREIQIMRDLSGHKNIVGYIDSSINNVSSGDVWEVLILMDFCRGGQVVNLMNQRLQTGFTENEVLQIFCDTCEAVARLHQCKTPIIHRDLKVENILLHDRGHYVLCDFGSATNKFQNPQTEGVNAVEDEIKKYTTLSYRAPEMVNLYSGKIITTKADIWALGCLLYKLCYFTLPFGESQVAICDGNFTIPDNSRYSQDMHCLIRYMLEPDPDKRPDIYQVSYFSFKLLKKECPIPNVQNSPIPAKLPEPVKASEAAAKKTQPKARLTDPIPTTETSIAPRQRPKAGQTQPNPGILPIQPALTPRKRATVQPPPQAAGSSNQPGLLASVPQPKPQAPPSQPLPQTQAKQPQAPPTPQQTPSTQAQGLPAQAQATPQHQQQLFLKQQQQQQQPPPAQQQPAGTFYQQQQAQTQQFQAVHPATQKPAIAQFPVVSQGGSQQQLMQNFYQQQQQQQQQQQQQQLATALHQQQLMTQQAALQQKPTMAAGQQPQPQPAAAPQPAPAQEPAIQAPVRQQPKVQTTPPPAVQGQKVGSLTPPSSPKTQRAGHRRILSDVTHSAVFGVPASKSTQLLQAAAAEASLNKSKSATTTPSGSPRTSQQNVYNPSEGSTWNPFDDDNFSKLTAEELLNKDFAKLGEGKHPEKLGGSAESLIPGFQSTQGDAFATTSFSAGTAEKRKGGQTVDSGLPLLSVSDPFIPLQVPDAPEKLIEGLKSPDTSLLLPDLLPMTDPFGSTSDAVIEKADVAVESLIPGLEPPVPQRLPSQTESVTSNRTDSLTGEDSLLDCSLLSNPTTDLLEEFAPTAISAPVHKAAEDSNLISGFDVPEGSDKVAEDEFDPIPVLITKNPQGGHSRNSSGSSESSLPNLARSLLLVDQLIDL
Description: AAK1 Kinase Assay. Particulars: ATP 22 μM. In kind it is biochemical. As for the experimental part: The assays were performed in U-bottom 384-well plates. The final assay volume was 30 μl prepared from 15 μl additions of enzyme and substrates (fluoresceinated peptide (5-FAM)-Aha-[…]-NH2 and ATP) and test compounds in assay buffer (10 mM Tris-HCL pH 7.4, 10 mM MgCl2, 0.01% Tween-20 and 1.0 mM DTT). The reactions were initiated by the combination of bacterially expressed, GST-Xa-hAAK1 with substrates and test compounds. The reactions were incubated at room temperature for 3 hours and terminated by adding 60 μl of 35 mM EDTA buffer to each sample. The reactions were analyzed on the Caliper LabChip 3000 (Caliper, Hopkinton, Mass.) by electrophoretic separation of the fluorescent substrate and phosphorylated product. […] The final concentration of reagents in the assays are ATP, 22 μM; (5-FAM)-Aha-[…]-NH2, 1.5 μM; GST-Xa-hAAK1, 3.5 nM; and DMSO, 1.6%. Dose response curves were generated to determine the concentration required inhibiting 50% of kinase activity (IC50). Compounds were dissolved at 10 mM in dimethylsulfoxide (DMSO) and evaluated at eleven concentrations. IC50 values were derived by non-linear regression analysis.

Experiment [3] deals with AAK1 (full length human) in HEK293F cells (Homo sapiens, UniProt Q2M2I8). Description: HEK293F Cell-Based Assay (phospho-mu2 Western blot). Particulars: 3 hours. On the procedure: HEK293F cells were cultured in media containing DMEM (Gibco, cat. #11965), 10% FBS (SAFC Biosciences, cat. #12103C), 1×GPS (glutamine, penicillin and streptomycin). On day one, cells were plated on a 10 cm dish so that they are ˜80% confluent at time of transfection. Roughly 12 million cells were in a 10 cm dish at time of transfection. On day two, each dish was transfected with 48 ug DNA and 144 ul Lipofectamine 2000 (Invitrogen, cat. #11668-019). The DNA was comprised of a mixture (per 10 cm dish) containing 3 ug AAK1/HA/pIRES (full length human, NCBI accession no. NP_055726.2), 45 μg Flag/AP2MI/pcDNA (full length human), and 1.5 ml OPTI-MEM. The Lipofectamine 2000 is made up of a mixture (per 10 cm dish) containing 144 μl Lipofectamine 2000 and 1.5 ml OPTI-MEM. Each mixture was transferred to individual 15 ml tubes and incubated at RT for 5 minutes, and then the two mixes were combined and incubated at RT for 20 minutes. Growth media was then aspirated from each 10 cm plate and replaced with 10 ml of DMEM+10% FBS (no GPS). Finally, 3 ml DNA/Lipofectamine mix was added to each 10 cm dish and mix gently followed by incubate of plate overnight at 37° C. and 5% CO2.
Sequence of AAK1 (full length human) in HEK293F cells (Q2M2I8 1-822 limits assumed): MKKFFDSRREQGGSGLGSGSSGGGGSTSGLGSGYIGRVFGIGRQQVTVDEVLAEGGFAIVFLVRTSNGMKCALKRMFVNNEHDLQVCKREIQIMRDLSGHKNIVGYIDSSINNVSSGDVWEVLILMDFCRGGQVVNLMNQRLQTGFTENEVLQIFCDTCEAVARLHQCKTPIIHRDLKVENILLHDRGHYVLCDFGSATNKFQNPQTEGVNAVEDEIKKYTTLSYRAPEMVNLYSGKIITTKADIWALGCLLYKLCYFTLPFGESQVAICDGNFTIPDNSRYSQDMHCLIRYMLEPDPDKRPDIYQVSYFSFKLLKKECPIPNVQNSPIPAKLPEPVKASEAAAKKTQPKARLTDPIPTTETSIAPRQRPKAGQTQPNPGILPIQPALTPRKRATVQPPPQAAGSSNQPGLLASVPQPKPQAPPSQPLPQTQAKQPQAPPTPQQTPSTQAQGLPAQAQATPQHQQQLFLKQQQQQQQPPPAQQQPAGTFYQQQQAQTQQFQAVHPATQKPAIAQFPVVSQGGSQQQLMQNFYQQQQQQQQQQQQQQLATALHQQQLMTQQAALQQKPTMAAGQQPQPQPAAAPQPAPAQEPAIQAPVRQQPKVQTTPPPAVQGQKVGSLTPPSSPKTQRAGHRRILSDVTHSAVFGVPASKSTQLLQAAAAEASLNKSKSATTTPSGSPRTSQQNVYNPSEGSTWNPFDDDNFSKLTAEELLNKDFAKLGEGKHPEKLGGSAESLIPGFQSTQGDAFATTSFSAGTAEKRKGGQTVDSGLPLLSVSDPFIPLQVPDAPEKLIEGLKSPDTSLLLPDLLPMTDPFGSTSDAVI
On day three, compounds were diluted in 100% DMSO at 1000× final concentration, followed by 3-fold serial dilutions for a total of 5 concentrations tested. Four compounds were tested per 10 cm dish. One ul of each compound dilution was then pipetted into a deep-well, 96-well plate, followed by addition of 500 μl DMEM+0.5% FBS into each well for a 2× final concentration of each compound. Cells were resuspended in a 10 cm dish by simple pipetting (HEK293 cells come off the plate that easy at this point) and then transferred to a 50 ml conical tube and pelleted by centrifugation at 1000 rpm for 5 min. Cell pellets were then resuspended in 2.75 ml DMEM+0.5% FBS per 10 cm dish and 100 μl of cell suspension transferred into each well of 96-well TC plate. Finally, 100 μl of 2× compound diluted in DMEM+0.5% FBS was then added into wells containing cell suspension for a 1× final concentration. Plates were then incubated at 37° C. and 5% CO2 for 3 hours followed by transferring of cell suspensions from each well into 12-tube PCR strips. The PCR strips were spun in a tip rack at 1000 rpm for 5 minutes to pellet cells and media was then removed by pipetting without disturbing the cell pellet.
To prepare for Western Blot analysis, cell pellets were resuspend in 40 ul 1× LDS-PAGE sample buffer (Invitrogen, cat. # NP0008)+2× Halt phophatase and protease inhibitor cocktail (Thermo Scientific, cat. #1861284), followed by sonicating each with microtip sonicator set at 5 for 8-10 seconds. Five ul of 10× NuPage Sample Reducing Agent (with 50 mM DTT) was to each sample followed by heat denaturing at 70 C for 10 min on PCR machine. A total of 10 μl per sample was loaded into each lane of a 4-20% Tris-Glycine Criterion 26-well gel (Biorad, cat. #345-0034) for the phospho-mu2 blot and 10 μl per lane in a 4-12% Bis-Tris (+MES buffer) NuPAGE 26-well gel (Invitrogen, cat. # WG1403BX10) for the mu2 blot. For controls, 2 ng of phospho-mu2 or 20 ng mu2/Flag proteins were loaded in the last well of each gel. After SDS-PAGE, samples on each gel were transferred to PVDF membrane using an iBlot and membranes were blocked for one hour in TBST+5% milk, followed by wash 3× for 5-10 min with TBST. Criterion gels were probed with rabbit anti-phospho-mu2 (1:5000; a rabbit polyclonal antibody produced by New England Peptide and affinity purified at Lexicon) in TBST+5% BSA, whereas, NuPAGE gels were probed with mouse anti-Flag (1:500; Sigma, cat. # F1804) in TBST+5% milk, and these primary antibodies were incubated overnight at 4° C. on a rocker. […]
(In general: In western blotting, separated proteins are transferred to a membrane and probed.)

Experiment [4] has as its system PC12 cells. Particulars: Kuai et al. 2011; cited from earlier work.
Setting [5] is: 50 mg/kg sc, relative to gabapentin 200 mg/kg = 100% response.

On to `CC(C)C[C@@H](N)COc1ccc2c(c1)OCc1cnccc1-2` [Compound 5, (R)-1-(5H-chromeno[3,4-c]pyridin-8-yloxy)-4-methylpentan-2-amine], for which the Response in experiment [1] (10 mg/kg sc, relative to gabapentin 200 mg/kg = 100% response) worked out at 45%; in experiment [1] (30 mg/kg sc, relative to gabapentin 200 mg/kg = 100% response), 88%.

For the molecule `CC(=O)Nc1cc2c(cn1)COc1cc(OC[C@](C)(N)CC(C)C)ccc1-2` [Example 46, (R)—N-(8-((2-amino-2,4-dimethylpentyl)oxy)-5H-chromeno[3,4-c]pyridin-2-yl)acetamide], the IC50 in experiment [2] (IC50 ranges) and in experiment [3] (IC50 ranges) was 1 to 10 nM each time.

Regarding `CC1Oc2cc(OCC(N)CCC(F)(F)F)ccc2-c2ccncc21` (stereo not shown) [Example 57, 5,5,5-trifluoro-1-((5-methyl-5H-chromeno[3,4-c]pyridin-8-yl)oxy)pentan-2-amine], the IC50 was in the range of 1 to 10 nM in experiment [2] (IC50 ranges) and 10 to 100 nM in experiment [3] (IC50 ranges).

With `CC(=O)Nc1cc2c(cn1)COc1c-2ccc(OC[C@@H](N)CC(C)C)c1OC(F)F` [Example 59, (S)—N-(8-((2-amino-4-methylpentyl)oxy)-7-(difluoromethoxy)-5H-chromeno[3,4-c]pyridin-2-yl)acetamide], the IC50 is 1 to 10 nM in experiment [2] (IC50 ranges) and less than 1 nM in experiment [3] (IC50 ranges).

`CC(=O)Nc1cc2c(cn1)COc1c-2ccc(OC[C@@H](N)CC(C)C)c1Cl` [Example 63, (S)—N-(8-((2-amino-4-methylpentyl)oxy)-7-chloro-5H-chromeno[3,4-c]pyridin-2-yl)acetamide]: the IC50 in experiment [2] (IC50 ranges) and in experiment [3] (IC50 ranges) was less than 1 nM each time.

As to `CC(C)C[C@H](N)COc1ccc2c(c1)OCc1cnc(NC(=O)OC(C)C)cc1-2` [Example 64, (S)-isopropyl (8-((2-amino-4-methylpentyl)oxy)-5H-chromeno[3,4-c]pyridin-2-yl)carbamate], the results for the IC50 in experiment [2] (numeric values) and in experiment [3] (numeric values) were 5.2 nM and 15 nM, respectively.

`COC(=O)Nc1cc2c(cn1)COc1cc(OCC(C)(N)CC(C)C)ccc1-2` (stereo not shown) [Example 67, methyl (8-((2-amino-2,4-dimethylpentyl)oxy)-5H-chromeno[3,4-c]pyridin-2-yl)carbamate]: the figures for the IC50 in experiment [2] (IC50 ranges) and in experiment [3] (IC50 ranges) were 1 to 10 nM and 10 to 100 nM, respectively.

For the molecule `CCC(=O)Nc1cc2c(cn1)COc1cc(OC[C@@H](N)CC(C)C)ccc1-2` [Example 73, (S)—N-(8-((2-amino-4-methylpentyl)oxy)-5H-chromeno[3,4-c]pyridin-2-yl)propionamide], the IC50 in experiment [2] (IC50 ranges) is 1 to 10 nM; in experiment [3] (IC50 ranges) it was 10 to 100 nM.

Consider `COC(=O)Nc1cc2c(cn1)COc1c-2ccc(OC[C@@H](N)CC(C)C)c1Cl` [Example 74, (S)-methyl (8-((2-amino-4-methylpentyl)oxy)-7-chloro-5H-chromeno[3,4-c]pyridin-2-yl)carbamate], for which the results for the IC50 in experiment [2] (IC50 ranges) and in experiment [3] (IC50 ranges) were 1 to 10 nM and less than 1 nM, respectively.

Regarding `CCOC(=O)Nc1cc2c(cn1)COc1cc(OC[C@@H](N)CC(C)C)ccc1-2` [Example 77, (S)-ethyl (8-((2-amino-4-methylpentyl)oxy)-5H-chromeno[3,4-c]pyridin-2-yl)carbamate], the IC50 in experiment [2] (IC50 ranges) and in experiment [3] (IC50 ranges) was 1 to 10 nM in each case.

On to `CCOC(=O)Nc1cc2c(cn1)COc1cc(OC[C@@](C)(N)CC(C)C)ccc1-2` [Example 81, (S)-ethyl (8-((2-amino-2,4-dimethylpentyl)oxy)-5H-chromeno[3,4-c]pyridin-2-yl)carbamate], for which the IC50 in experiment [2] (IC50 ranges) and in experiment [3] (IC50 ranges) was less than 1 nM throughout.

Consider `COC(=O)Nc1ncc2c(c1Cl)-c1cc(Cl)c(OC[C@@](C)(N)CC(C)C)cc1OC2` [Example 82, (S)-methyl (8-((2-amino-2,4-dimethylpentyl)oxy)-1,9-dichloro-5H-chromeno[3,4-c]pyridin-2-yl)carbamate], for which the IC50 in experiment [2] (IC50 ranges) and in experiment [3] (IC50 ranges) was 1 to 10 nM in each case.

Regarding `COC(=O)[C@@]1(O)C[C@H]2O[C@]1(C)n1c3ccccc3c3c4c(c5c6ccccc6n2c5c31)C(=O)NC4` [Example K252a, K252a], in experiment [4], the “effect on Neuregulin-1 induced neurite outgrowth” value is “potentiation of Neuregulin-1 induced neurite outgrowth”.

Take `NCC1(CC(=O)O)CCCCC1` [Gabapentin]: the Response stood at 60% in experiment [1] (setting [5]) and 100% in experiment [1] (200 mg/kg sc, considered a 100% response).

`CC(C)C[C@H](CN)CC(=O)O` [Pregabalin] gave a Response in experiment [1] (setting [5]) of 90%.
